The IC50 is the midpoint of a concentration-inhibition curve. Usually IC90 stands for the point of the concentration-response curve where the effect stands at 90%. High values mean weaker potency, low ones greater potency.

The subject of this assay is Leishmania donovani. Nature of the assay: Antileishmanial activity against Leishmania donovani promastigotes by alamar blue dye based fluorescence assay. It is filed as functional, organism-based. (Alamar Blue is a resazurin reagent that responds to reducing activity.)
In the case of `C[C@@H]1C[C@H](OC(=O)c2cc(O)ccc2O)[C@H](O)[C@H](O)[C@@H]1O`, the IC50 came out at 100 µM and the IC90 is above 134 µM. `C[C@@H]1C[C@H](O)[C@H](O)[C@H](O)[C@@H]1OCc1cc(O)ccc1O` returned an IC50 of 57 µM and an IC90 of 119 µM.

For the compound `C[C@@H]1[C@H](O)[C@@H](C)/C=C/C=C/C=C/C=C/C=C/C=C/C=C/[C@H](O[C@@H]2O[C@H](C)[C@@H](O)[C@H](N)[C@@H]2O)C[C@@H]2O[C@](O)(C[C@@H](O)C[C@@H](O)[C@H](O)CC[C@@H](O)C[C@@H](O)CC(=O)O[C@H]1C)C[C@H](O)[C@H]2C(=O)O` [AMPHOTERICIN B], the IC90 is 0.4 µM.

Consider `N=C(N)c1ccc(OCCCCCOc2ccc(C(=N)N)cc2)cc1` [PENTAMIDINE], for which half-maximal inhibition (IC50) was put at 9 µM and the IC90 worked out at 17 µM.
